Laboratory results reported in patent US9023408B2, “Composition and method for control of diabetes” (Meyer Nutriceuticals LLC, priority 2009, dated 2015).

How the values were obtained:
GLP-1 = assay: Placebo-controlled double-blinded study in type 2 diabetes: plasma GLP-1; parameters: species or system human; conditions: in vivo
Procedure: FIGS. 6 and 7 depict the effect of CTM #3 versus placebo on blood glucose in a randomized, placebo-controlled, double-blinded study in 10 subjects with mild to moderate type 2 diabetes. After an overnight fast, subjects ingested 10 g of placebo pellets or CTM #3 pellets with the same standard breakfast as above (415 kcal; 71 g of carbohydrate) followed by a standard lunch at 240 min (708 kcal; 89 g of carbohydrate). […] The higher calorie lunch raised GLP-1s more than the breakfast on placebo days; and the CTM raised the post lunch GLP-1s even more. […] Using a similar calculation as used above for PYY, the per-calorie effectiveness of the lauric acid in CTM #3 in boosting the GLP-1 response to the meal was 77 times that of the calories in the breakfast.
For comparisons, the APAP levels have been scaled up so that their value equaled that of the GLP-1 peak at 270 min. […] The diabetic subjects were older than the normal subjects, and four of them had mild vagal neuropathy which might have contributed to slower gastric emptying. […]
The GLP-1 values (vertical axis) following the CTM treatment are expressed as a percent of the corresponding value at each time point following the placebo treatment, so that any value above the horizontal 100% line represents the effect of lauric acid released from the CTM #3. […]

[1] = human, in vivo
Procedure: An additional gram of pellets was added to the dose; and the additional pellets had been surface-labeled with 99m-Tc-polymethylmethacrylate (these additional pellets could not release their contents), so that the positions of the pellets with time could be followed with a gamma camera. The releasing pellets also contained 5% (w/w) APAP which is rapidly and completely absorbed from small or large bowel, even in the presence of food. The APAP served as a pharmacokinetic marker. Subjects ate a free-choice meal at 241 min. Finally, PYY levels (see FIG. 4b) were followed on CTM and also on control days when four of the eight subjects shown in FIG. 4a consumed the standard breakfast at t=0 and a free choice lunch at t=241 min, but no pellets of CTM #3. Because lauric acid released from CTM #3 cannot be distinguished in plasma from dietary and endogenous lauric acid, assays of plasma PYY served as a surrogate for the release of bioactive lauric acid, which is known to be a potent stimulus of secretion of PYY and GLP-1 from L cells. To compare the time-courses of basal subtracted PYY measurements with those of APAP, analytical values for APAP were scaled up so that they equaled the peak PYY at 300 min.
From 240-300 minutes, the pellets began to empty from the ileum, so that by 300 min, there were few pellets in the small bowel, and the majority of pellets was now in the colon. […]

[2] = U.S.P. in vitro dissolution test (rotating basket); conditions: uncoated cores of CTM #3

For CCCCCCCCCCCC(=O)O [lauric acid], which “per calorie potency relative to dietary nutrients in releasing GLP-1 and PYY” value (GLP-1) is on record?
The value was 77-150 times.

What about the “duration of slow release from the dosage form after ingestion” value [1] of the same molecule?
Its value is 330 to 360 min.

And the “solubility in simulated bile (bile salts and lecithin) at pH 6.2” value ([2]; pH 6.2)?
Its value is “only half as soluble as maltose”.

And the “solubility compared with maltose, bile-free medium” value ([2]; pH 6.2 1 h then pH 7.2 3 h)?
The value was “much less soluble than maltose”.

What about the “solubility in simulated bile (bile salts and lecithin) at pH 7.2” value ([2]; pH 7.2) of the same molecule?
Its value is “as soluble as maltose or APAP”.
